In one assay the target is T1, Y2 receptor (Homo sapiens, UniProt P49146).
T1 sequence (P49146 1-381): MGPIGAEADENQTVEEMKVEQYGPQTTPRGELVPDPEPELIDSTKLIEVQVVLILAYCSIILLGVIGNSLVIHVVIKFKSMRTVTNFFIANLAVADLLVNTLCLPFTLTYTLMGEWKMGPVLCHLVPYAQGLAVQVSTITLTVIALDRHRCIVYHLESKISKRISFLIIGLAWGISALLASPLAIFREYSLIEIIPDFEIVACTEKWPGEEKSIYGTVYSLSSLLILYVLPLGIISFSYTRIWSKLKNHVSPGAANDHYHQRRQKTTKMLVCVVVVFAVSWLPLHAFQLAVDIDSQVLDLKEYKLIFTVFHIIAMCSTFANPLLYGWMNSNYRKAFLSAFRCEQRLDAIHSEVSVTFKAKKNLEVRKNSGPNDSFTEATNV
The assay can be described thus: Y2 receptor binding assay ([125I]PYY, membrane protein). The settings on record: [125I]PYY binding, membrane protein; read-out: hNPY2 IC50. As for the experimental part: B. Human Y2 and Y4/PP1 Receptor Binding Assays
Binding assays were performed on GF/C Millipore 96-well plates pretreated with 0.02% polyethylenimine. The binding buffer for rat Y2 binding is Krebs-Ringer bicarbonate (pH 7.4) containing 0.01% BSA and 0.005% bacitracin. Samples consist of membrane protein, 25 pM [1251]PYY and drug dilution. Nonspecific binding is defined by 1 μM NPY. The binding buffer for human Y4/PP1 binding consists of 137 mM NaCl, 5.4 mM KCl, 0.44 mM KH2PO4, 1.26 mM CaCl2, 0.81 mM MgSO4, 20 mM HEPES, 1 mM dithiothreitol, 0.1% bacitracin, 100 mg/l streptomycin sulfate, 1 mg/l aprotinin, 10 mg/ml soybean trypsin inhibitor and 0.3% BSA, pH 7.4. Samples consist of membrane protein, 50 pM human [1251]human PP (hPP: NEN DuPont, Boston, Mass.) and drug dilution. 1 μM hPP is used to define nonspecific binding.
After a 2 hour incubation at room temperature with constant mixing, the samples are aspirated on a vacuum manifold, and rinsed with ice-cold binding buffer. The amount of radioactivity in each well is quantitated with either gamma counting or liquid scintillation.

In a further assay the target is T2, Human NPY5 receptor (Homo sapiens, UniProt Q15761).
T2 sequence (Q15761 1-445): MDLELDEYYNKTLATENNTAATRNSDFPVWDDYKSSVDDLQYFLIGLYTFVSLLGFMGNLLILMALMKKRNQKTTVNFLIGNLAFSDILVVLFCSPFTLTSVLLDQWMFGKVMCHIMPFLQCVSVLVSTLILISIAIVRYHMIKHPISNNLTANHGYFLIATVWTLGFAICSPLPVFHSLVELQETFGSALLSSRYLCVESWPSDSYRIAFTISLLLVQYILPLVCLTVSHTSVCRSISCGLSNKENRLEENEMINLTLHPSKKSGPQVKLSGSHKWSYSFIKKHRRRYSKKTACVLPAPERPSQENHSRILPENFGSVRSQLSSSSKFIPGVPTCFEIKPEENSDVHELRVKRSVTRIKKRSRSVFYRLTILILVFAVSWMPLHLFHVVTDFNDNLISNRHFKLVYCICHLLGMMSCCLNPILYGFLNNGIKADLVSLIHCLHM
The assay can be described thus: Human NPY5 receptor binding assay ([125I]PYY, membrane protein). The settings on record: [125I]PYY binding, read-out: hNPY5 IC50. As for the experimental part: C. Human and Rat NPY5 Receptor Binding Assays
Binding assays are performed on GF/C Millipore 96well plates pretreated with 0.02% polyethylenimine. The binding buffer is 25 mM Tris, 120 mM NaCl, 5 mM KCl, 1.2 mM KH2PO4, 2.5 mM CaCl2, 1.2 mM MgSO4, 0.1% BSA and 0.5 mg/ml bacitracin, pH 7.4. Samples consist of membrane protein, 75-100 pM [125I]PYY (porcine, NEN-DuPont) and drug dilution. Nonspecific binding is defined by 1 μM PYY. After a 2 hour incubation at room temperature with constant mixing, the samples are aspirated on a vacuum manifold, and rinsed with ice-cold binding buffer. The amount of radioactivity in each well is quantitated with either gamma counting or liquid scintillation.

In the case of `O=C(CN(CCO)c1ccccc1)Nc1ccc(C(=O)c2ccccc2)cc1` [Compound 17, N-(4-Benzoyl-phenyl)-2-[(2-hydroxy-ethyl)-phenyl-amino]-acetamide], the IC50 was > 5 µM at Y2 receptor and 1.2 µM at Human NPY5 receptor.

Consider “(2R,4R)-1-[(4-Cyclohexyl-phenylcarbamoyl)-methyl]-4-hydroxy-pyrrolidine-2-carboxylic acid [Compound 90]”, for which the IC50 was > 5 µM at Y2 receptor and 3.8 µM on Human NPY5 receptor.

In the case of `O=C(CN1CCC[C@H]1CN1CCCC1)Nc1ccc(C2CCCCC2)cc1` [Compound 79, N-(4-Cyclohexyl-phenyl)-2-(2S-pyrrolidin-1-ylmethyl-pyrrolidin-1-yl)-acetamide], the IC50 is > 5 µM on Y2 receptor and 3.5 µM at Human NPY5 receptor.

`NC(=O)C1(NC2CCCCC2)CCN(CC(=O)Nc2ccc(C3CCCCC3)cc2)CC1` [Compound 35, 4-Cyclohexylamino-1-[(4-cyclohexyl-phenylcarbamoyl)-methyl]-piperidin-4-carboxylic acid amide]: the IC50 on Y2 receptor is > 5 µM; on Human NPY5 receptor, 0.63 µM.

Take `NC1CCN(CC(=O)Nc2ccc(C(=O)c3ccccc3)cc2)C1` (stereo not drawn) [Compound 112, 2-(3-Amino-pyrrolidin-1-yl)-N-(4-benzoyl-phenyl)-acetamide]: the IC50 was > 5 µM at Y2 receptor and 3.9 µM at Human NPY5 receptor.

For the molecule `O=C(CN1CCN(Cc2ccccc2)CC1)Nc1ccc(C(=O)c2ccccc2)cc1` [Compound 16, N-(4-Benzoyl-phenyl)-2-(4-benzyl-piperazin-1-yl)-acetamide], the IC50 is > 5 µM at Y2 receptor and 9.6 µM at Human NPY5 receptor.

`CC1(C)CCN(CC(=O)Nc2ccc(C3CCCCC3)cc2)CC1` [Compound 34, N-(4-Cyclohexyl-phenyl)-2-(4,4-dimethyl-piperidin-1-yl)-acetamide]: the figures for the IC50 on Y2 receptor and on Human NPY5 receptor were > 5 µM and 1.4 µM, respectively.

Turning to `CCC(=O)C1(c2ccccc2)CCN(CC(=O)Nc2ccc(C(=O)c3ccccc3)cc2)CC1` [Compound 69, N-(4-Benzoyl-phenyl)-2-(4-phenyl-4-propionyl-piperidin-1-yl)-acetamide], the IC50 on Y2 receptor was > 5 µM; on Human NPY5 receptor it was 0.003 µM.

Regarding `O=C(CN1CCC(O)(Cc2ccccc2)CC1)Nc1ccc(C2CCCCC2)cc1` [Compound 1, 2-(4-Benzyl-4-hydroxypiperidin-1-yl)-N-(4-cyclohexylphenyl)acetamide], the figures for the IC50 on Y2 receptor and on Human NPY5 receptor were > 5 µM and 0.15 µM, respectively.

Take `CN(C)C1CCN(CC(=O)Nc2ccc(C(=O)c3ccccc3)cc2)CC1` [Compound 49, N-(4-Benzoyl-phenyl)-2-(4-dimethylamino-piperidin-1-yl)-acetamide]: the results for the IC50 on Y2 receptor and on Human NPY5 receptor were > 5 µM and 8.8 µM, respectively.

On to `CC(O)C1CCN(CC(=O)Nc2ccc(C3CCCCC3)cc2)CC1` (stereo not drawn) [Compound 59, N-(4-Cyclohexyl-phenyl)-2-[4-(1-hydroxy-ethyl)-piperidin-1-yl]-acetamide], for which the IC50 at Y2 receptor is > 5 µM; on Human NPY5 receptor, 0.65 µM.

Regarding `O=C(CN1C[C@H](O)C[C@H]1C(=O)O)Nc1ccc(C(=O)c2ccccc2)cc1` [Compound 109, (2S,4R)-1-[(4-Benzoyl-phenylcarbamoyl)-methyl]-4-hydroxy-pyrrolidine-2-carboxylic acid], the IC50 was > 5 µM on Y2 receptor and > 10 µM at Human NPY5 receptor.

For the molecule `CCCOC1(c2ccccc2)CCN(CC(=O)Nc2ccc(C(=O)c3ccccc3)cc2)CC1` [Compound 66, N-(4-Benzoyl-phenyl)-2-(4-phenyl-4-propoxy-piperidin-1-yl)-acetamide], the IC50 at Y2 receptor is > 5 µM; at Human NPY5 receptor it was 0.78 µM.

As to `O=C(CN1CCC(O)(CCCc2ccccc2)CC1)Nc1ccc(C(=O)c2ccccc2)cc1` [Compound 60, N-(4-Benzoyl-phenyl)-2-[4-hydroxy-4-(3-phenyl-propyl)-piperidin-1-yl]-acetamide], the IC50 at Y2 receptor is > 5 µM; at Human NPY5 receptor, 4.2 µM.

In the case of `CN(C)C1(C(N)=O)CCN(CC(=O)Nc2ccc(C(=O)c3ccccc3)cc2)CC1` [Compound 64, 1-[(4-Benzoyl-phenylcarbamoyl)-methyl]-4-dimethylamino-piperidine-4-carboxylic acid amide], the results for the IC50 at Y2 receptor and on Human NPY5 receptor were > 5 µM and 4.8 µM, respectively.

For `NC(=O)C1(Nc2ccccc2)CCN(CC(=O)Nc2ccc(C3CCCCC3)cc2)CC1` [Compound 31, 1-[(4-Cyclohexyl-phenylcarbamoyl)-methyl]-4-phenylamino-piperidine-4-carboxylic acid amide], the IC50 on Y2 receptor is > 5 µM; at Human NPY5 receptor, 1.2 µM.

`COC(=O)[C@@H]1CCCN1CC(=O)Nc1ccc(C2CCCCC2)cc1` [Compound 96, (2S)-1-[(4-Cyclohexyl-phenylcarbamoyl)-methyl]-pyrrolidine-2-carboxylic acid methyl ester]: the figures for the IC50 on Y2 receptor and at Human NPY5 receptor were > 5 µM and 1.2 µM, respectively.

As to `O=C(CN1CCC[C@H]1CO)Nc1ccc(C(=O)c2ccccc2)cc1` [Compound 85, N-(4-Benzoyl-phenyl)-2-(2S-hydroxymethyl-pyrrolidin-1-yl)-acetamide], the IC50 was > 5 µM on Y2 receptor and 2.8 µM at Human NPY5 receptor.

As to `O=C(CN1CC[C@@H](O)C1)Nc1ccc(C(=O)c2ccccc2)cc1` [Compound 81, N-(4-Benzoyl-phenyl)-2-(3R-hydroxy-pyrrolidin-1-yl)-acetamide], the IC50 at Y2 receptor and at Human NPY5 receptor was > 5 µM in each case.

Consider `O=C(CN1CCN(c2ccc(Cl)cc2)CC1)Nc1ccc(C(=O)c2ccccc2)cc1` [Compound 10, N-(4-Benzoyl-phenyl)-2-[4-(4-chloro-phenyl)-piperazin-1-yl]-acetamide], for which the IC50 on Y2 receptor is > 5 µM; on Human NPY5 receptor it was 2.9 µM.

Regarding `O=C(CNCC1CCNCC1)Nc1ccc(C2CCCCC2)cc1` [Compound 28, N-(4-Cyclohexyl-phenyl)-2-[(piperidin-4-ylmethyl)-amino]-acetamide], the IC50 at Y2 receptor is > 5 µM; at Human NPY5 receptor it was 8.9 µM.

Turning to `NC1CCN(CC(=O)Nc2ccc(C3CCCCC3)cc2)C1` (stereo not drawn) [Compound 100, 2-(3-Amino-pyrrolidin-1-yl)-N-(4-cyclohexyl-phenyl)-acetamide], the 50% inhibitory concentration (IC50) on Y2 receptor was > 5 µM; at Human NPY5 receptor it was 2.4 µM.

Take “1-[(4-Cyclohexyl-phenylcarbamoyl)-methyl]-piperidine-4-carboxylic acid [Compound 25]”: the IC50 at Y2 receptor is > 5 µM; on Human NPY5 receptor it was 1.9 µM.

Take `O=C(CN1CCCC1c1cccnc1)Nc1ccc(C(=O)c2ccccc2)cc1` (stereo not drawn) [Compound 77, N-(4-Benzoyl-phenyl)-2-(2-pyridin-3-yl-pyrrolidin-1-yl)-acetamide]: the values for the IC50 on Y2 receptor and at Human NPY5 receptor were > 5 µM and 2.6 µM, respectively.

Turning to `O=C(CN1CCC[C@H]1C(=O)O)Nc1ccc(C2CCCCC2)cc1` [Compound 99, (2S)-1-[(4-Cyclohexyl-phenylcarbamoyl)-methyl]-pyrrolidine-2-carboxylic acid], the IC50 at Y2 receptor was > 5 µM; at Human NPY5 receptor, 8.4 µM.

Regarding `O=C(CN(CCO)c1ccccc1)Nc1ccc(C2CCCCC2)cc1` [Compound 14, N-(4-cyclohexyl-phenyl)-2-[(2-hydroxy-ethyl)-phenyl-amino]-acetamide], the figures for the IC50 on Y2 receptor and at Human NPY5 receptor were > 5 µM and 1.8 µM, respectively.

`O=C(CN1CCN(c2cccc(Cl)c2)CC1)Nc1ccc(C(=O)c2ccccc2)cc1` [Compound 9]: the IC50 at Y2 receptor is > 5 µM; at Human NPY5 receptor it was 0.64 µM.

The record behind these values is patent publication US6410792B1, “Amide derivatives and methods for using the same as selective neuropeptide Y receptor antagonists” (Bayer Corporation, priority 1997, dated 2002).
